From US8481708B2, “snRNA gene-like transcriptional units and uses thereof” (Università degli Studi di Genova, priority 2005, dated 2013)

Test system: RNA Polymerase III
Experiment: Promoter activity transfection assay with Pol III inhibitor ML-60218
Type: cell-based, human
Details: after 24 hours of cell treatment with ML-60218 (20 μM); hairpin constructs with novel promoters
Method: For transient transfections Hela cells (grown in DMEM supplemented with 10% FCS), were grown in multiwell Petri dishes 16 hours before transfection. The expression [21A, 21A(1), 21A(2), 21A(3)] constructs containing the regions of interest cloned in the pTopo vectors (Invitrogen) were introduced into the cells using the Fugene 6 transfection reagent (Roche) according to the manufacturer's instructions. A plasmid Expressing Luciferase was used as control of transfection efficiency (to which all the results were normalized). 24, 48 and 72 hours after transfection cells were harvested and firely luciferase activity was measured by Dual-Luciferase reporter assay system (Promega). manufacturer's protocol.

- luciferase signal: increased
SMILES: Cc1c(-c2cc(NS(=O)(=O)c3ccccc3Cl)n(C)n2)sc2ccc(Cl)cc12 [ML-60218]
